In patent US8865684B2, “Morpholin-4-ium 4 methoxyphenyl (morpholino) phosphinodithioate (GYY4137) as a novel vasodilator agent” (National University of Singapore, priority 2009, dated 2014):

Columns and labels:
[1] = system: phenylephrine-precontracted rat aorta; experiment: tissue or blood
[2] = H2S release in vitro, DTNB assay; type: physicochemical; details: phosphate buffer
[3] = system: isolated perfused rat kidney; experiment: Isolated perfused rat kidney, perfusion pressure
Protocol: (§1) For experiments using perfused kidney or heart, Sprague-Dawley rats (male; weight, 230 to 270 g) were anesthetized as described above. […] In kidneys, dose-response curves (volumes <10 μL) were obtained for bolus-injected noradrenaline, angiotensin II, or U46619.

anesthetized rat = experiment: Blood pressure in the anesthetized rat; type: in vivo
[4] = system: Langendorff-perfused rat heart; experiment: Langendorff-perfused rat heart; details: at 30 minutes
Protocol: as §1

[5] = GYY4137 133 μmol/kg IV or IP; NaHS 20 μmol/kg IV; up to 180 minutes
Protocol: Blood (0.5 mL) was withdrawn at timed intervals, anticoagulated with heparin (50 U/mL), and centrifuged (2000 g, 20 minutes). […] The zinc acetate assay measures free H2S plus related species including HS^− (hydrosulfide anion) and S2^− (sulfide). Accordingly, results for plasma H2S reported herein indicate the sum total of these species. All experiments on intact animals were undertaken with the approval of the local National University of Singapore Institutional Animal Care and Use Committee.

[6] = system: rat aortic vascular smooth muscle cells (A10); experiment: cAMP and cGMP in cultured vascular smooth muscle cells (ELISA); type: cell-based; details: 100 μmol/L, 45 minutes, isobutyl methylxanthine 300 μmol/L; control 11.3±1.4; n=6
Description: Normal rat aortic vascular smooth muscle cells (A10) were obtained from the American Type Culture Collection (ATCC, Manassas, Va.).

## S [NaHS, sodium hydrosulfide]
[1]
  time course: response to a standard concentration of phenylephrine after drug: did not reduce
  vasorelaxant effect after removal of the endothelium or exposure to L-NAME or ODQ: reduced
  vasorelaxant effect in presence of KATP channel blockers (glibenclamide or PNU37883A): reduced
[1]; Rattus norvegicus, phenylephrine-precontracted, read-out: EC50, relaxation of aortic rings
  EC50: 274 ± 22.2 µM
[1]; Rattus norvegicus, phenylephrine-precontracted, read-out: Emax, relaxation of aortic rings
  Emax: 63.4 ± 3.3%
[1]; concentration used for time course experiments
  approximate EC70: ~300 µM
[2]
  H2S release in the DTNB assay: instantaneous
[3]; bolus 10 nmol, n=10
  transient fall in perfusion pressure: 10.2±2.8 mm Hg
[3]; bolus 5 μmol, n=8
  fall in perfusion pressure (biphasic response): 11.6±4.5 mm Hg
  rise in perfusion pressure (biphasic response): 22.7±6.7 mm Hg
Anesthetized rat; NaHS 2.5 to 20 μmol/kg IV, GYY4137 26.6 to 133 μmol/kg IV
  effect on blood pressure: immediate, transient (10 to 30 seconds), and dose-related falls
[4]; 100 μmol/L
  reduction of cardiac contractility (left ventricular diastolic pressure): 42.0±7.8%
[4]; NaHS 100 μmol/L
  reduction of heart rate: 53.2±6.6%
[5]
  plasma H2S (H2S, HS−, S2−) concentration: did not elevate

## C1CCC(N=C(NC23CC4CC(CC(C4)C2)C3)N2CCOCC2)CC1.Cl [PNU37883A]
Anesthetized rat; 15 minutes after PNU37883A 26.2 μmol/kg IP, versus 105.6±3.5 before injection, n=5, P=0.053
  blood pressure after PNU37883A: 117.2±3.7 mm Hg

## C=C[C@@]1(C)CC(=O)[C@]2(O)[C@@]3(C)[C@@H](O)CCC(C)(C)[C@@H]3[C@H](O)[C@H](OC(C)=O)[C@@]2(C)O1 [forskolin]
[6]
  cAMP concentration: 79.6 ± 1.6 nmol/L
